The first assay deals with b-Raf (V600E) (Homo sapiens (Human), UniProt P15056, V600E). The settings on record: read-out: b-Raf IC-50; AlphaScreen, 60 min pre-incubation, 3 hours reaction. For orientation: Alpha assays give light when donor and acceptor beads are brought close together.
Chain of b-Raf (V600E) (P15056 whole entry V600E): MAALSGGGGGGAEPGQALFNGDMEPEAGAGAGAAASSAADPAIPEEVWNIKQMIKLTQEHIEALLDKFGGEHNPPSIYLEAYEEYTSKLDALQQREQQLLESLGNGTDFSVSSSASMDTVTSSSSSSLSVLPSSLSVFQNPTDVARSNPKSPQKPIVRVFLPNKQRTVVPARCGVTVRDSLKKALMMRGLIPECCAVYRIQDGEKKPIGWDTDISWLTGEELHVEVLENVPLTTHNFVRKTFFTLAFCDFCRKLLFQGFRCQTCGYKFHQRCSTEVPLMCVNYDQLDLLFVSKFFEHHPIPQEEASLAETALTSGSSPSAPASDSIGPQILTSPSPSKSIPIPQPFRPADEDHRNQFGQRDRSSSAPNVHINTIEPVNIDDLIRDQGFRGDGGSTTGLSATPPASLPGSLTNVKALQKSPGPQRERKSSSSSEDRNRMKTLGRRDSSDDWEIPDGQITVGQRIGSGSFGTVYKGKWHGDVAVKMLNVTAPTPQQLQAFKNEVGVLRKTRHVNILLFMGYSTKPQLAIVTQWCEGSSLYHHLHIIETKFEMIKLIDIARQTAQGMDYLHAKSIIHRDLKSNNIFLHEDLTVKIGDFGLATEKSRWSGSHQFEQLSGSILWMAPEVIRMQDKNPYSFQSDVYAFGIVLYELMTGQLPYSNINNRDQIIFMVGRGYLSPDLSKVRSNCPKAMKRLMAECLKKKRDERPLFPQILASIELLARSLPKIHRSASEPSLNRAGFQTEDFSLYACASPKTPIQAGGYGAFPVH
As to `Cc1ccc(NC(=O)c2ccnc(N(C)CCO)c2)cc1-c1cc(N2CCOCC2)c(=O)n(C)c1` [Example 456], the IC50 was 3.3 nM.
`Cc1ncc(NC(=O)c2ccnc(C(F)F)c2)cc1-c1cncc(N2CCOCC2)n1` [Example 535, 2-(difluoromethyl)-N-(6-methyl-5-(6-morpholinopyrazin-2-yl)pyridin-3-yl)isonicotinamide]: the IC50 worked out at 45.5 nM.
Same read-out and setting: next, `CCNc1nc(-c2cc(NC(=O)c3ccnc(C(F)(F)CC)c3)ccc2C)cc(N2CCOCC2)n1` [Example 706, 2-(1,1-difluoropropyl)-N-(3-(2-(ethylamino)-6-morpholinopyrimidin-4-yl)-4-methylphenyl)isonicotinamide]: 0.8 nM; `Cc1ccc(NC(=O)c2ccnc(C(C)(C)F)c2)cc1-c1cc(N2C3CCC2COC3)c(=O)n(C)n1` [Example 668, N-(3-(5-(3-oxa-8-azabicyclo[3.2.1]octan-8-yl)-1-methyl-6-oxo-1,6-dihydropyridazin-3-yl)-4-methylphenyl)-2-(2-fluoropropan-2-yl)isonicotinamide]: 4.1 nM; `CCNc1nc(-c2cc(NC(=O)c3ccnc(C(F)F)c3)cnc2C)cc(N2CCOCC2)n1` [Example 721, 2-(difluoromethyl)-N-(5-(2-(ethylamino)-6-morpholinopyrimidin-4-yl)-6-methylpyridin-3-yl)isonicotinamide]: 3.3 nM.
The same measure, in the same setting: with `CCNc1nc(-c2cc(NC(=O)c3ccnc(C(C)(C)C)c3)cnc2C)cc(N2CCOCC2)n1` [Example 724, 2-(tert-butyl)-N-(5-(2-(ethylamino)-6-morpholinopyrimidin-4-yl)-6-methylpyridin-3-yl)isonicotinamide] the figure was 20.5 nM; with `Cc1ccc(NC(=O)c2ccnc(C(C)(C)C#N)c2)cc1-c1cc(N2CCOCC2)nc(N2CC(O)C2)n1` [Example 769], 10.2 nM; with `Cc1ncc(NC(=O)c2ccnc(S(C)(=O)=O)c2)cc1-c1cc(N2CCOCC2)n2nccc2n1` [Example 807, N-(6-methyl-5-(7-morpholinopyrazolo[1,5-a]pyrimidin-5-yl)pyridin-3-yl)-2-(methylsulfonyl)isonicotinamide], 8.8 nM.
Still for that read-out and setting: next, `Cc1ccc(C(=O)Nc2ccccc2)cc1-c1cc(N2CCOCC2)n(C)c(=O)c1` [Example 518, 4-methyl-3-(1-methyl-6-morpholino-2-oxo-1,2-dihydropyridin-4-yl)-N-phenylbenzamide]: 79 nM; `Cc1ncc(NC(=O)c2ccnc(C(C)(C)O)c2)cc1-c1cc(N2CCOCC2)c(OC2CCOCC2)nn1` [Example 634, 2-(2-hydroxypropan-2-yl)-N-(6-methyl-5-(5-morpholino-6-((tetrahydro-2H-pyran-4-yl)oxy)pyridazin-3-yl)pyridin-3-yl)isonicotinamide]: 17.1 nM.
For `CCNc1nc(-c2cc(NC(=O)c3ccnc(C(C)(F)F)c3)ccc2C)cc(N2CCOCC2)n1` [Example 697, 2-(1,1-difluoroethyl)-N-(3-(2-(ethylamino)-6-morpholinopyrimidin-4-yl)-4-methylphenyl)isonicotinamide], the IC50 was 1 nM.
For `Cc1ncc(NC(=O)c2ccnc(S(C)(=O)=O)c2)cc1-c1cc(N2CCOCC2)c(OC2CCOCC2)nn1` [Example 632, N-(6-methyl-5-(5-morpholino-6-((tetrahydro-2H-pyran-4-yl)oxy)pyridazin-3-yl)pyridin-3-yl)-2-(methylsulfonyl)isonicotinamide], the IC50 worked out at 7.5 nM.
Still for that read-out and setting: with `CCOc1nc(-c2cc(NC(=O)c3ccnc(C(F)(F)F)c3)ccc2C)cc(N2CCOCC2)n1` [Example 762, N-(3-(2-ethoxy-6-morpholinopyrimidin-4-yl)-4-methylphenyl)-2-(trifluoromethyl)isonicotinamide] the figure was 0.7 nM; with `Cc1ncc(NC(=O)c2ccnc(C(C)C)c2)cc1-c1cc(N2CCOCC2)n(C)c(=O)c1` [Example 505, N-(1′,2-dimethyl-6′-morpholino-2′-oxo-1′,2′-dihydro-[3,4′-bipyridin]-5-yl)-2-isopropylisonicotinamide], 5.8 nM.
Same read-out and setting: with `CCOc1nnc(-c2cc(NC(=O)c3cccc(C(F)(F)F)c3)cnc2C)cc1N1CCOC[C@H]1C` [Example 622, (R)—N-(5-(6-ethoxy-5-(3-methylmorpholino)pyridazin-3-yl)-6-methylpyridin-3-yl)-3-(trifluoromethyl)benzamide] the figure was 4.9 nM.

Staying with this assay, now noted: read-out: b-Raf IC-50; AlphaScreen, 60 min pre-incubation, reaction 3 hours at room temperature.
With `CCN1CCN(c2cc(C(=O)Nc3cnc(C)c(-c4cc(N5CCOCC5)nc(N5CC(O)C5)c4)c3)cc(C(F)(F)F)c2)CC1` [Example 1087, 3-(4-ethylpiperazin-1-yl)-N-(2′-(3-hydroxyazetidin-1-yl)-2-methyl-6′-morpholino-[3,4′-bipyridin]-5-yl)-5-(trifluoromethyl)benzamide], the IC50 amounted to 26.5 nM.
Still for that read-out and setting: next, `Cc1ccc(NC(=O)c2ccnc(C(C)(C)F)c2)cc1-c1cc(NC[C@@H](C)O)nc(N2CCOCC2)n1` [Example 1025, (R)-2-(2-fluoropropan-2-yl)-N-(3-(6-((2-hydroxypropyl)amino)-2-morpholinopyrimidin-4-yl)-4-methylphenyl)isonicotinamide]: 12.7 nM; `Cc1ccc(NC(=O)c2ccnc(C(C)(C)C#N)c2)cc1-c1cc(OC2CCOCC2)nc(N2CCOCC2)c1` [Example 1152, 2-(2-cyanopropan-2-yl)-N-(4-methyl-3-(2-morpholino-6-((tetrahydro-2H-pyran-4-yl)oxy)pyridin-4-yl)phenyl)isonicotinamide]: 1.25 nM; `Cc1ncc(NC(=O)c2ccnc(C(F)(F)F)c2)cc1-c1cnc(OC(F)F)c(N2CCOCC2)c1` [Example 978]: 1.86 nM.
For `Cc1ncc(NC(=O)c2cc(C(C)(C)C#N)ccn2)cc1-c1cnc(OC(C)C)c(N2CCOCC2)c1` [Example 958, 4-(2-cyanopropan-2-yl)-N-(6′-isopropoxy-2-methyl-5′-morpholino-[3,3′-bipyridin]-5-yl)picolinamide], the IC50 was found to be 9.15 nM.
Turning to `Cc1ncc(NC(=O)c2cc(C(C)(C)C#N)ccn2)cc1-c1cnc(OC2CCOCC2)c(N2CCOCC2)c1` [Example 943, 4-(2-cyanopropan-2-yl)-N-(2-methyl-5′-morpholino-6′-((tetrahydro-2H-pyran-4-yl)oxy)-[3,3′-bipyridin]-5-yl)picolinamide], the IC50 worked out at 9.51 nM.
`Cc1ncc(NC(=O)c2cc(C(C)(C)F)ccn2)cc1-c1cnc(OCCO)c(N2CCOCC2)c1` [Example 971, 4-(2-fluoropropan-2-yl)-N-(6′-(2-hydroxyethoxy)-2-methyl-5-morpholino-[3,3′-bipyridin]-5-yl)picolinamide]: the IC50 stood at 8.27 nM.
The same measure, in the same setting: with `Cc1ccc(NC(=O)c2cc(C3CC3)on2)cc1-c1cc(N2CCOCC2)nc(N2CC(O)C2)c1` [Example 1095, 5-cyclopropyl-N-(3-(2-(3-hydroxyazetidin-1-yl)-6-morpholinopyridin-4-yl)-4-methylphenyl)isoxazole-3-carboxamide] the figure was 1.11 nM; with `Cc1ncc(NC(=O)c2ccnc(C(C)(C)F)c2)cc1-c1cnc(OC2CC3(COC3)C2)c(N2CCOCC2)c1` [Example 963, N-(6′-(2-oxaspiro[3.3]heptan-6-yloxy)-2-methyl-5′-morpholino-[3,3′-bipyridin]-5-yl)-2-(2-fluoropropan-2-yl)isonicotinamide], 2.88 nM.
As for `Cc1ccc(NC(=O)c2ccnc(C(F)F)c2)cc1-c1cc(N2CCOCC2)nc(N2CC(O)C2)c1` [Example 1067, 2-(difluoromethyl)-N-(3-(2-(3-hydroxyazetidin-1-yl)-6-morpholinopyridin-4-yl)-4-methylphenyl)isonicotinamide], the IC50 came out at 0.6 nM.
The same measure, in the same setting: next, `CCC(F)(F)c1cc(C(=O)Nc2cnc(C)c(-c3cc(N4CCOCC4)c(OCC(F)F)nn3)c2)ccn1` [Example 914, N-(5-(6-(2,2-difluoroethoxy)-5-morpholinopyridazin-3-yl)-6-methylpyridin-3-yl)-2-(1,1-difluoropropyl)isonicotinamide]: 1.95 nM; `Cc1ccc(NC(=O)c2ccnc(C(F)(F)F)c2)cc1-c1cc(NC[C@@H](C)O)nc(N2CCOCC2)n1` [Example 1023, (R)—N-(3-(6-((2-hydroxypropyl)amino)-2-morpholinopyrimidin-4-yl)-4-methylphenyl)-2-(trifluoromethyl)isonicotinamide]: 2.32 nM.

The same assay, now with this note: read-out: b-Raf IC-50; Table 2; AlphaScreen, 3 hours reaction.
Turning to `CCOc1ncc(-c2cc(NC(=O)c3ccnc(C(C)(C)F)c3)cnc2C)cc1N1CCOCC1` [Example 253, N-(6′-ethoxy-2-methyl-5′-morpholino-[3,3′-bipyridin]-5-yl)-2-(2-fluoropropan-2-yl)isonicotinamide], the IC50 came to 2.6 nM.
On to `Cc1ccc(NC(=O)c2cncc(N(C)C)c2)cc1-c1cc(N2CCOCC2)nc(N2CCOCC2)n1` [Example 18, 5-(dimethylamino)-N-(3-(2,6-dimorpholinopyrimidin-4-yl)-4-methylphenyl)nicotinamide], for which the IC50 was found to be 0.5 nM.
Still for that read-out and setting: next, `Cc1ncc(NC(=O)c2ccnc(C(C)(C)F)c2)cc1-c1cncc(N2CCOCC2)c1` [Example 294, 2-(2-fluoropropan-2-yl)-N-(2-methyl-5′-morpholino-[3,3′-bipyridin]-5-yl)isonicotinamide]: 10.8 nM.
On the same count and under the same terms, next, `Cc1ncc(NC(=O)c2cccc(C(F)(F)F)c2)cc1-c1cnc(OC2CCOCC2)c(N2CCOCC2)c1` [Example 131, N-(2-methyl-5′-morpholino-6′-((tetrahydro-2H-pyran-4-yl)oxy)-[3,3′-bipyridin]-5-yl)-3-(trifluoromethyl)benzamide]: 1.8 nM; `Cc1ncc(NC(=O)c2cccc(C(F)(F)F)c2)cc1-c1cc(N2CCOCC2)c(=O)n(C)c1` [Example 138, N-(1′,2-dimethyl-5′-morpholino-6′-oxo-1′,6′-dihydro-[3,3′-bipyridin]-5-yl)-3-(trifluoromethyl)benzamide]: 4.7 nM.
As for `CCOc1ncc(-c2cc(C(=O)Nc3ccnc(C(F)(F)F)c3)ccc2C)cc1N1CCOCC1` [Example 306, 3-(6-ethoxy-5-morpholinopyridin-3-yl)-4-methyl-N-(2-(trifluoromethyl)pyridin-4-yl)benzamide], the IC50 is 1.1 nM.
